Measured values taken from PMC11768932, “Pharmacokinetic Evaluation of Neutral Sphinghomyelinase2 (nSMase2) Inhibitor Prodrugs in Mice and Dogs” (Pharmaceutics, 2024).
“And” between values parts separate entries of the source, which are not always exact repeats. Equal values may be shown once. Where a name gives a salt, the structure may show the parent alone. Read-outs that look alike come from different tables or passages of the source. Each block holds one molecule with its values, some of them ahead of it.

Tests used:
[1] = In vitro stability in human plasma; assay type: in vitro ADME; settings: 37 °C; for remaining at 1 h, 10 μM: human, 60 min, read-out: In Vitro Stability in Plasma (% Remaining at 60 min) Mean ± SEM (n = 3), Humans; for In Vitro Stability in Plasma (% Remaining at 60 min) Mean ± SEM (n = 3), Humans: 10 μM
Experimental: (§1) The in vitro metabolic stability analysis of DPTIP prodrugs was performed in the plasma of mice, dogs, and humans, as previously described. Briefly, for plasma stability, 1 mL of plasma was spiked with 10 μM of the respective prodrug followed by incubation in an orbital shaker at 37 °C for 1 h (in triplicate). The samples from each incubation at predetermined time points (0 and 60 min) was quenched with 3× volume of acetonitrile containing the internal standard (IS; losartan: 0.5 μM). The samples were vortex-mixed for 30 s and centrifuged at 10,000× g for 10 min at 4 °C. Compound disappearance over time was monitored via a Dionex ultra-high-performance LC system coupled with a Q Exactive Focus orbitrap mass spectrometer (Thermo Fisher Scientific Inc., Waltham, MA, USA). Quantification of the prodrugs was performed in full scan mode (from m/z 75 to 1125) by comparing t = 0 min samples with t = 60 min samples.

[2] = In vitro stability in dog plasma; assay type: in vitro ADME; settings: 37 °C; for remaining at 1 h, 10 μM: dog, 60 min, read-out: In Vitro Stability in Plasma (% Remaining at 60 min) Mean ± SEM (n = 3), Dogs; for In Vitro Stability in Plasma (% Remaining at 60 min) Mean ± SEM (n = 3), Dogs: 10 μM
Experimental: as §1

[3] = Pharmacokinetic study in CES1−/− mice, released DPTIP in plasma after peroral dose; assay type: in vivo, C57BL/6 CES1−/− mice; settings: PO 10 mg/kg DPTIP equivalent
Experimental: In vivo mice PK studies were carried out as previously described. Briefly, mice PK studies were carried out in CES1^−/− mice according to protocols approved by the Animal Care and Use Committee at Johns Hopkins University. The C57BL/6 CES1^−/^− mice were received from the United States Army Medical Research Institute of Chemical Defense, Maryland, and maintained on a 12 h light−dark cycle with ad libitum access to food and water. Prodrugs 3, 4, 5, 6, 8, and 9 were administered at a dose of 10 mg/kg equivalent of DPTIP to CES1^−/− mice as a single peroral (PO) dose made fresh in formulation (5% DMSO, 10% tween, and 85% saline v/v/v) prior to dosing. […]
The quantification of the released DPTIP was performed using our previously published method with minor modifications. […]
The plasma samples from both mice and dogs were processed through simple protein precipitation. […] A volume of 2 µL was injected onto the ultra-performance liquid chromatography instrument for quantitative analysis using a temperature-controlled autosampler operating at 4 °C. […]
The plasma concentrations (pmol/mL) for the mice were quantified, and plots of mean plasma concentration versus time were constructed using GraphPad Prism (10.3.0). Similarly, plasma concentrations (pmol/mL) for the dogs were measured and corresponding mean plasma concentration versus time plots were generated. […]

[4] = parameters: method as in PMID 35930706; settings: cited from earlier work; for AUC0–t / Cmax / Tmax / t(1/2): released DPTIP in plasma, CES1−/− mice, PO 10 mg/kg DPTIP or equivalent, previously published
[5] = parameters: method as in PMID 35930706; settings: CES1−/− mouse plasma, 10 μM, 37 °C, previously published; cited from earlier work
[6] = In vitro stability in mouse plasma; assay type: in vitro ADME; settings: CES1−/−, 37 °C, 60 min, read-out: In Vitro Stability in Plasma (% Remaining at 60 min) Mean ± SEM (n = 3), Mice
Experimental: as §1

[7] = parameters: method as in PMID 8593015; settings: valine ester prodrug, transport via PEPT1 in the intestine; cited from earlier work
[8] = parameters: method as in PMID 30531925, PMID 30921693; settings: cited from earlier work
[9] = Pharmacokinetic study in dogs, released DPTIP in plasma after IV or peroral dose; assay type: in vivo, male Beagle dogs
Experimental: The PK studies in dogs were performed in accordance with the guidelines recommended by Pharmaron (San Diego, CA, USA) Institutional Animal Care and Use Committee. Briefly, male Beagle dogs 9 to 11 kg were obtained from the test facility’s colony of non-naïve animals. The animals were fasted overnight prior to dose administration and fed 4 h after dosing. The body weights were recorded and the animals were dosed with DPTIP, and prodrugs 2, 3, 4, 6, 7, 8, and 9 at 2 mg/kg equivalent of DPTIP as a single preoral dose PO (n = 2) with the exception of DPTIP IV dosed at 1 mg/kg (n = 1). All drugs were dissolved in the formulations (5% NMP, 5% Kolliphor, 30% PEG, and 60% water v/v) made freshly prior to dosing. The blood samples were collected via a cephalic vein at specified time points (0.083, 0.25, 0.5, 1, 2, 4, 6, 8, and 24 h) post-drug administration, and transferred into tubes containing sodium fluoride as a stabilizer (10 µL/mL of 500 µg/mL). The tubes were stored on wet ice until processed to plasma by centrifugation (3500× g at 4 °C for 10 min) within 30 min of collection. The plasma samples were transferred into individually labeled matrix tubes and stored at nominal −80 °C immediately (within 10 min of separation) until bioanalysis.
The quantification of the released DPTIP was performed using our previously published method with minor modifications. Briefly, calibration standards were prepared by spiking the DPTIP into naïve plasma from mice and dogs. All the calibration curves were constructed in the range of 1–3000 pmol/mL in the naïve sample-matched matrices in both the mouse and dog samples. Linear regression with 1/(nominal concentration) weighting factor was used for fitting the calibration curve. A correlation coefficient greater than 0.99 was considered acceptable in the analytical runs for all analyses.
The plasma samples from both mice and dogs were processed through simple protein precipitation. For this, 20 µL of plasma was mixed with 100 µL methanol containing 0.5 µM losartan (internal standards; IS) in low retention microcentrifuge tubes. All samples were vortex-mixed and centrifuged at 16,000× g for 5 min at 4 °C. A 50 µL of aliquot of supernatant was diluted with 50 µL of LC-MS water transferred to a 96-well polypropylene autosampler sealed with a Teflon cap. A volume of 2 µL was injected onto the ultra-performance liquid chromatography instrument for quantitative analysis using a temperature-controlled autosampler operating at 4 °C. Chromatographic separation was performed using a Thermo Scientific Vanquish ultra-high-performance system consisting of an analytical pump and coupled with a TSQ Altis mass spectrometer. The analytes were separated using an Agilent Eclipse Plus column (100 × 2.1 mm i.d, 1.8 μm) maintained at 35 °C. The (M+H)^+ ion transition of DPTIP (m/z 378.85 → 363.07, 200.05) and losartan (IS) (m/z 423.2 → 207.10, 180.88) were used. A gradient method was used with a mobile phase composition of 0.1% formic acid in acetonitrile and 0.1% formic acid in water.
The plasma concentrations (pmol/mL) for the mice were quantified, and plots of mean plasma concentration versus time were constructed using GraphPad Prism (10.3.0). Similarly, plasma concentrations (pmol/mL) for the dogs were measured and corresponding mean plasma concentration versus time plots were generated. The plasma concentrations in both mice and dogs were analyzed using a noncompartmental analysis method as implemented in the computer software program Phoenix WinNonlin version 8.4 (Certara USA Inc., Princeton, NJ, USA). The maximum plasma concentration (Cmax) and time to Cmax (Tmax) were the observed values. The area under the plasma concentration–time curve (AUC) values were calculated to the last quantifiable sample (AUC0–t) using the log-linear trapezoidal rule. The oral bioavailability was calculated by AUCPO divided by AUC IV with dose normalization. […]

[10] = test system: nSMase2; settings: cited from earlier work
[11] = test system: rat brain nSMase2; parameters: method as in PMID 33395289; settings: cited from earlier work

SMILES: COc1cc(-c2nc(-c3ccccc3)c(-c3cccs3)[nH]2)cc(OC)c1OC(=O)N(C)C [Prodrug 4]
remaining at 1 h, 10 μM [1]: > 90% | remaining at 1 h, 10 μM [2]: > 90%

remaining at 1 h, 10 μM [1]: > 90% | remaining at 1 h, 10 μM [2]: > 90% | fold increase in DPTIP half-life compared to DPTIP [3]: no significant improvement
SMILES: COc1cc(-c2nc(-c3ccccc3)c(-c3cccs3)[nH]2)cc(OC)c1OCOP(=O)(O)O [Prodrug 6]

SMILES: CCC1CC(N2CCCCC2)CC(CC)N1C(=O)Oc1c(OC)cc(-c2nc(-c3ccccc3)c(-c3cccs3)[nH]2)cc1OC (centres unmarked) [Prodrug 7]
remaining at 1 h, 10 μM [1]: > 90% | remaining at 1 h, 10 μM [2]: > 90% | fold increase in DPTIP plasma exposure (AUC0–t) compared to DPTIP ([4]; mice, PO): > 4 fold and 4 fold | AUC0–t [4]: 1047 ± 101 ^α pmol·h/mL | Cmax [4]: 191 ± 39.6 nM | Tmax [4]: 2 h | t(1/2) [4]: 2.7 h

SMILES: CCCCCN(C)C(=O)Oc1c(OC)cc(-c2nc(-c3ccccc3)c(-c3cccs3)[nH]2)cc1OC [Prodrug 5]
In Vitro Stability in Plasma (% Remaining at 60 min) Mean ± SEM (n = 3), Humans [1]: 42.3 ± 2.1% | remaining at 1 h, 10 μM [1]: 40 to 77% | In Vitro Stability in Plasma (% Remaining at 60 min) Mean ± SEM (n = 3), Dogs [2]: 49.5 ± 1.0% | remaining at 1 h, 10 μM [2]: 40 to 77% | In Vitro Stability in Plasma (% Remaining at 60 min) Mean ± SEM (n = 3), Mice [5]: 59.9 ± 5.8 %

SMILES: COc1cc(-c2nc(-c3ccccc3)c(-c3cccs3)[nH]2)cc(OC)c1OC(=O)N1CCC(N2CCCCC2)CC1 [Prodrug 2]
remaining at 1 h, 10 μM [1]: > 90% | remaining at 1 h, 10 μM [2]: > 90% | AUC0–t [4]: 273 ± 36.8 pmol·h/mL | Cmax [4]: 149 ± 9.9 nM | Tmax [4]: 1 h | t(1/2) [4]: 1.4 h

In Vitro Stability in Plasma (% Remaining at 60 min) Mean ± SEM (n = 3), Humans [1]: 79.3 ± 1.4% | remaining at 1 h, 10 μM [1]: ~80% | In Vitro Stability in Plasma (% Remaining at 60 min) Mean ± SEM (n = 3), Dogs [2]: 62.9 ± 7.2% | remaining at 1 h, 10 μM [2]: ~60% | fold increase in DPTIP half-life compared to DPTIP [3]: no significant improvement
SMILES: CCCCCC(=O)Oc1c(OC)cc(-c2nc(-c3ccccc3)c(-c3cccs3)[nH]2)cc1OC [Prodrug 3]

remaining at 1 h, 10 μM [6]: 40 to 77% | In Vitro Stability in Plasma (% Remaining at 60 min) Mean ± SEM (n = 3), Humans [1]: 76.4 ± 1.4% | In Vitro Stability in Plasma (% Remaining at 60 min) Mean ± SEM (n = 3), Dogs [2]: 76.3 ± 1.8%
SMILES: COc1cc(-c2nc(-c3ccccc3)c(-c3cccs3)[nH]2)cc(OC)c1OC(=O)[C@@H](NC(=O)[C@@H](N)C(C)C)C(C)C [Prodrug 9]

SMILES: CC(C)[C@H](N)C(=O)OCCOCn1cnc2c(=O)[nH]c(N)nc21 [valacyclovir]
fold increase in oral bioavailability [7]: 3–5 fold

remaining at 1 h, 10 μM [1]: > 90% | remaining at 1 h, 10 μM [2]: > 90% | t(1/2) ([9]; IV 1 mg/kg (n = 1), 1 mg/kg): 3.71 h | clearance ([9]; male, Beagle, dog, plasma, IV 1 mg/kg, read-out: clearance (CL)): 12 mL/min/kg | C0 ([9]; male, Beagle, dog, plasma, IV 1 mg/kg, read-out: initial plasma concentration (C0)): 2500 nM | Vd ([9]; male, Beagle, dog, plasma, IV 1 mg/kg, read-out: volume of distribution (Vd)): 3.8 L/kg | half-life ([9]; male, Beagle, dog, plasma, iv, 1 mg/kg, IV 1 mg/kg (n = 1)): 3.7 h | AUC(0-t) ([9]; male, Beagle, dog, plasma, iv, 1 mg/kg, IV 1 mg/kg, read-out: exposures (AUC0–t)): 3.9 µM·h | Cmax ([9]; male, Beagle, dog, plasma, iv, 1 mg/kg, IV 1 mg/kg, read-out: maximum plasma concentration (Cmax)): 2400 nM | AUC(0-t) ([9]; male, Beagle, dog, plasma, iv, 1 mg/kg, IV 1 mg/kg, value dose adjusted to 2 mg/kg, read-out: AUC0–t): 7.81 µM·h | Cmax ([9]; male, Beagle, dog, plasma, iv, 1 mg/kg, IV 1 mg/kg, value dose adjusted to 2 mg/kg, read-out: Cmax): 4800 nM
SMILES: COc1cc(-c2nc(-c3cccs3)c(-c3ccccc3)[nH]2)cc(OC)c1O [DPTIP, 2,6-dimethoxy-4-(5-phenyl-4-(thiophen-2-yl)-1H-imidazol-2-yl)-phenol]
half-life (t1/2) ([8]; as given in abstract): ≤ 0.5 h | half-life ([8]; mice): < 0.5 h | oral bioavailability (%F) ([8]; mice): < 5% | Cmax [4]: 307 ± 93.9 nM | Tmax [4]: 0.25 h | t(1/2) [4]: 0.46 h | IC50 [10]: 30 nM

SMILES: O=C(/C=C/c1ccc(/C=C/C(=O)Nc2ccc(C3=NCCN3)cc2)cc1)Nc1ccc(C2=NCCN2)cc1 [GW4869]
IC50 [11]: 1000 nM

remaining at 1 h, 10 μM [1]: ~0% | remaining at 1 h, 10 μM [2]: ~0%
SMILES: COc1cc(-c2nc(-c3ccccc3)c(-c3cccs3)[nH]2)cc(OC)c1OC(=O)[C@@H](N)C(C)C [Prodrug 8, 2,6-Dimethoxy-4-(4-phenyl-5-(thiophen-2-yl)-1H-imidazol-2-yl) phenyl L-valinate hydrochloride]
